Results reported in article PMC9298352, “Design, Synthesis and Structural Analysis of Glucocerebrosidase Imaging Agents” (Chemistry (Weinheim an Der Bergstrasse, Germany), 2021).

How the values were obtained:
Assay type in all cases: biochemical
rhGBA = target: T1, rhGBA (Homo sapiens, UniProt P04062); experiment: Titration of ABP 6 and ABP 9 with constant rhGBA (gel-based labelling); conditions: constant rhGBA 200 nM, ABP 150–0.001 nM, 37 °C, 30 mins
T1 construct: made in house; host or cells: insect-baculovirus expression vector system (BEVS)
T1 sequence (P04062 40-536): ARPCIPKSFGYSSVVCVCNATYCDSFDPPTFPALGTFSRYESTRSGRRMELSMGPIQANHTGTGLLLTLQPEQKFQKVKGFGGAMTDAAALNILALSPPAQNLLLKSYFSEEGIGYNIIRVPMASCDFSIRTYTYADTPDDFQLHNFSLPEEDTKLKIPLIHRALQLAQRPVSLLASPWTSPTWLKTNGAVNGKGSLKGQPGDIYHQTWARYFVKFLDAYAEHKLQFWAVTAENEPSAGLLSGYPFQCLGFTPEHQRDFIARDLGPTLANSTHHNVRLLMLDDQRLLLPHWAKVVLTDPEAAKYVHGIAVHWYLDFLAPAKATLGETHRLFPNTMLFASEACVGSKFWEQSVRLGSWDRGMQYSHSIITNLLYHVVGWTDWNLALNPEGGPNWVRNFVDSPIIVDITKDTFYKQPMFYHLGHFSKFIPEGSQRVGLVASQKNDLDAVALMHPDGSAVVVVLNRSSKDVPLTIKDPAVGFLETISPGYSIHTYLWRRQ
Description: Maximum‐likelihood/σA weighted (2Fo–Fc) electron density map contoured to 1.0 σ (a=1.31 e^−/Å^3). […] Fluorescently labelled rhGBA visualized by Cy5 fluorescent readout. D=denatured protein sample.
The reactions were incubated at 37 °C for 30 mins and denatured with Laemmli (x3) sample buffer at 95 °C for 5 minutes. The samples were resolved by electrophoresis in 10 % SDS‐PAGE gels, running at 200 V for ∼50 minutes. Wet slab gels were scanned on fluorescence using an Amersham Typhoon 5 Imager (GE Healthcare) with λEX 635 nm; λEM >665 nm.

[1] = target: T2, GBA in mouse brain lysate (Mus musculus, UniProt P17439); experiment: Fluorescent labeling of mouse brain lysate, GBA; conditions: 37 °C
T2 construct: from tissue; host or cells: mouse brain
T2 sequence (P17439 20-515): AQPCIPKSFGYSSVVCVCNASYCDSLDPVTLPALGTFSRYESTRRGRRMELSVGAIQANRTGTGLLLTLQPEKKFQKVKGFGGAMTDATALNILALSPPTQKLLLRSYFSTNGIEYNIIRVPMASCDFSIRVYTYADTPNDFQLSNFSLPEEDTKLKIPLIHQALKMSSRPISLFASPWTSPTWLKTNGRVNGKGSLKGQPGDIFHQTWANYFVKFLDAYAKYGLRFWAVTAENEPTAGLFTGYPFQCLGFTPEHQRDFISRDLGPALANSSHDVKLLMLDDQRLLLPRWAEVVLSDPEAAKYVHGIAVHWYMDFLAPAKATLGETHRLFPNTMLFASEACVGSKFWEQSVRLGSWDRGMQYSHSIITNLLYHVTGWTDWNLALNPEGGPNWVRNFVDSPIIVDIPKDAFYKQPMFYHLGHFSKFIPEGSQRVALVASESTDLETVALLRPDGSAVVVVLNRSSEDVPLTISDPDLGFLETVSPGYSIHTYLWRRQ
Description: (§1) We next investigated their labeling efficiency and selectivity toward GBA in mouse brain lysate at pH 5.2 (containing 0.2 % taurocholate and 0.1 % Triton‐100) and pH 5.8 as respective optimal conditions for GBA and GBA2 activities (Figure 7). […] Importantly, no labelling of GBA2 was observed up to 1000 nM, showing good GBA selectivity.
(§2) Labeling by broad‐spectrum β‐glucosidase ABP 8 is shown for comparison (100 nM, pH 5.2 or pH 5.8, 30 min, 37 °C).
(§3) Fluorescent labeling with broad‐spectrum ABP 8 was performed at 100 nM ABP concentration at 37 °C for 30 min at pH 5.2 (with 0.1 % (v/v) Triton X‐100 and 0.2 % (w/v) sodium taurocholate) or pH 5.8 respectively. Samples were then denatured with 4 μL Laemmli (5x) sample buffer and heated at 98 °C for 5 minutes. Proteins were resolved by electrophoresis in 10 % SDS‐PAGE gels, running at a constant of 90 V for 30 minutes followed by 120 V for approximately 60 minutes. Wet slab gels were scanned on fluorescence using a Typhoon FLA9500 Imager (GE Healthcare) using λEX 635 nm; λEM >665 nm and images were processed using ImageLab 5.2.1 (BioRad).

[2] = target: T3, GBA2 in mouse brain lysate (Mus musculus, UniProt Q69ZF3); experiment: Fluorescent labeling of mouse brain lysate, GBA2; conditions: 30 min, 37 °C
T3 construct: from tissue; host or cells: mouse brain
T3 sequence (Q69ZF3 1-918): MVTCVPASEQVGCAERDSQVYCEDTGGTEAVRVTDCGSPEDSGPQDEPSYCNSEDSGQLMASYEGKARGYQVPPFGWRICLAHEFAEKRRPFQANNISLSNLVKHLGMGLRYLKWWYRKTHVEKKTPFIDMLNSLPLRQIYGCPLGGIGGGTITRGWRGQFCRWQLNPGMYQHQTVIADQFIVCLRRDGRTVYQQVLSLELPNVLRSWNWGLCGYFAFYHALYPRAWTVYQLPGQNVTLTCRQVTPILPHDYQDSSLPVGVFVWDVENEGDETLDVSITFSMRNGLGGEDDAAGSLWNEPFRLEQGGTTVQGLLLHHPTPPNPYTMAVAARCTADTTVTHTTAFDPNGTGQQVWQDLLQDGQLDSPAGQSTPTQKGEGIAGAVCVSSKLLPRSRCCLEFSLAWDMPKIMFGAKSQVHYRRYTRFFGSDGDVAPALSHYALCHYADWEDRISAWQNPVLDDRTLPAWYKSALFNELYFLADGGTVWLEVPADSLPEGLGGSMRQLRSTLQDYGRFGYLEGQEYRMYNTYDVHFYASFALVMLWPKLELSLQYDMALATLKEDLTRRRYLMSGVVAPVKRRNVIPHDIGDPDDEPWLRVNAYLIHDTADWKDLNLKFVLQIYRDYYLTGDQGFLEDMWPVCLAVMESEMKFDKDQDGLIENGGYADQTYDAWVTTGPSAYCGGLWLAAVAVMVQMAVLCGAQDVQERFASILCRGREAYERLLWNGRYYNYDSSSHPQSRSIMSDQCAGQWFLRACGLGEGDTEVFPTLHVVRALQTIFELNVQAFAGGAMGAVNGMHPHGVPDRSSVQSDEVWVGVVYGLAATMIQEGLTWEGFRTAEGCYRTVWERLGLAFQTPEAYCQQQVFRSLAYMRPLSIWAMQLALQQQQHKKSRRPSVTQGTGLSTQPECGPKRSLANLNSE
Description: as §1, §2, §3

With `CCCCCCCCN1[C@@H]2[C@H](Cn3cc(CNC(=O)CCCCC[N+]4=C(/C=C/C=C/C=C5/N(C)c6ccccc6C5(C)C)C(C)(C)c5ccccc54)nn3)[C@@H](O)[C@H](O)[C@@H](O)[C@@H]21` (stereo partly shown) [ABP 6] the “gel-detection limit (ABP concentration)” value (rhGBA) was 1 nM, the “ABP concentration with significant labeling of GBA” value ([1]; pH 5.2 with 0.2 % taurocholate and 0.1 % Triton, 30 min) was 10 nM and the “ABP concentration with significant labeling of GBA” value ([1]; pH 5.8, 30 min) was 1000 nM. The “ABP concentration up to which no labelling of GBA2 was observed” value [2] was over 1000 nM.
